The source of these data is US20260070945A1, “MACROCYCLIC IMMUNOMODULATORS” (Bristol-Myers Squibb Company, priority 2022, published 2026).

pIC50: −log10 of the molar value. Where a SMILES comes first, the peptide text is derived from it. Bridges are numbered along the chain shown (N, C = ends). [ ]: non-standard residue; d: D form. The star is where a group is joined. ξ: configuration not given here. Phe(4-COOH) = N[C@@H](Cc1ccc(C(=O)O)cc1)C(=O)O; Bip = N[C@@H](Cc1ccc(-c2ccccc2)cc1)C(=O)O; Phe(3-Me) = Cc1cccc(C[C@H](N)C(=O)O)c1; Cha = N[C@@H](CC1CCCCC1)C(=O)O; Ile(3ξ) = CCC(C)[C@H](N)C(=O)O; Thr(3ξ) = CC(O)[C@H](N)C(=O)O; NMeS = CN[C@@H](CO)C(=O)O; Carboxymethyl = O=C(O)C*; NMeA = CN[C@@H](C)C(=O)O; Aun = NCCCCCCCCCCC(=O)O; Dab = NCC[C@H](N)C(=O)O; AEEA = NCCOCCOCC(=O)O

In the experiment the target is T1, PD-1/PD-L1 interaction (PE-labeled human PD-L1-Ig binding to Jurkat cell line over-expressing human PD-1) (Homo sapiens, UniProt Q15116).
T1 construct: expressed in transfected cells; host or cells: Jurkat
T1 sequence (Q15116 25-288): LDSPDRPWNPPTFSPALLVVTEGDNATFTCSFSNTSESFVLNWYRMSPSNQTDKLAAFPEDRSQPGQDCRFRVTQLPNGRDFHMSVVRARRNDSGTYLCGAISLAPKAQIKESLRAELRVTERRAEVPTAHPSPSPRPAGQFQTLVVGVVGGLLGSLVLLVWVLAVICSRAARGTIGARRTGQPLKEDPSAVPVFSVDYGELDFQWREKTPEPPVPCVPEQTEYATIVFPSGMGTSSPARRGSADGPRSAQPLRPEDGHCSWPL
The experiment is described as follows: Jurkat-PD-1 Cell Binding High-Content Screening Assay (CBA). The conditions noted are these: Jurkat-hPD-1 cells, PE-labeled PD-L1-Ig 20 nM final; read-out: Jurkat HPD1 PDL1 IC50. An outline of the steps: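 Binding of 20 nM (final) PE-tagged PD-L1-Ig to compound-pretreated Jurkat-hPD-1 cells was measured by high-content imaging after 1 h. Pretreatment ran 2 h at 37 °C in DMEM with 10% fetal calf serum.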
As to `CCC(C)[C@@H]1NC(=O)[C@H](Cc2ccc(-c3ccccc3)cc2)NC(=O)[C@H](CC(C)C)NC(=O)[C@H](Cc2c[nH]c3ccccc23)NC(=O)[C@H](CC(=O)O)NC(=O)[C@H](Cc2ccc(C(=O)O)cc2)NC(=O)[C@H](Cc2ccc(OCC(=O)O)cc2)NC(=O)CSC[C@@H](C(=O)NCCOCCOCC(=O)NCCCCCCCCCCC(=O)O)NC(=O)[C@H](CCCNC(=N)N)NC(=O)[C@H](C(C)C)NC(=O)[C@H](CC2CCCCC2)NC(=O)[C@H](CCN)NC(=O)[C@@H](CC(C)C)NC(=O)[C@H](CO)N(C)C1=O` (stereo partly drawn) [Example 2279] ({CH2CO}-Y(Carboxymethyl)[Phe(4-COOH)]DWL[Bip][Ile(3ξ)][NMeS][dL][Dab][Cha]VRC[AEEA][Aun]-OH; thioether N-14), the pIC50 (commonly −log10 of the IC50, conventionally taken in molar units) was 7.68. Under `Cc1cccc(C[C@@H]2NC(=O)[C@H](CC(=O)O)NC(=O)[C@H](Cc3ccc(OCC(=O)O)cc3)NC(=O)[C@H](Cc3ccc(OCC(=O)O)cc3)NC(=O)CSC[C@@H](C(=O)NCCOCCOCC(=O)NCCCCCCCCCCC(=O)O)NC(=O)[C@H](CCCNC(=N)N)NC(=O)[C@H](C(C)C)NC(=O)[C@H](CC3CCCCC3)NC(=O)[C@H](CCN)NC(=O)[C@@H](CC(C)C)NC(=O)[C@H](C)N(C)C(=O)[C@H](Cc3ccc(O)cc3)NC(=O)[C@H](Cc3ccc(-c4ccccc4)cc3)NC(=O)[C@H](CC(C)C)NC2=O)c1` [Example 2280] ({CH2CO}-Y(Carboxymethyl)Y(Carboxymethyl)D[Phe(3-Me)]L[Bip]Y[NMeA][dL][Dab][Cha]VRC[AEEA][Aun]-OH; thioether N-14) stands 6.99; under `CC(=O)NCCCC[C@@H]1NC(=O)[C@H](Cc2ccc(-c3ccccc3)cc2)NC(=O)[C@H](CC(C)C)NC(=O)[C@H](Cc2cccc(C)c2)NC(=O)[C@H](CC(=O)O)NC(=O)[C@H](Cc2ccc(C(=O)O)cc2)NC(=O)[C@H](Cc2ccc(OCC(=O)O)cc2)NC(=O)CSC[C@@H](C(=O)NCCOCCOCC(=O)NCCCCCCCCCCC(=O)O)NC(=O)[C@H](C(C)O)NC(=O)[C@H](C(C)C)NC(=O)[C@H](CC2CCCCC2)NC(=O)[C@H](CCN)NC(=O)[C@@H](CC(C)C)NC(=O)[C@H](C)N(C)C1=O` (stereo partly drawn) [Example 2282] ({CH2CO}-Y(Carboxymethyl)[Phe(4-COOH)]D[Phe(3-Me)]L[Bip]K(Ac)[NMeA][dL][Dab][Cha]V[Thr(3ξ)]C[AEEA][Aun]-OH; thioether N-14), 7.45; under `CC(=O)NCCCC[C@@H]1NC(=O)[C@H](Cc2ccc(-c3ccccc3)cc2)NC(=O)[C@H](C(C)C)NC(=O)[C@H](Cc2cccc(C)c2)NC(=O)[C@H](CC(=O)O)NC(=O)[C@H](Cc2ccc(C(=O)O)cc2)NC(=O)[C@H](Cc2ccc(OCC(=O)O)cc2)NC(=O)CSC[C@@H](C(=O)NCCOCCOCC(=O)NCCCCCCCCCCC(=O)O)NC(=O)[C@H](C(C)O)NC(=O)[C@H](C(C)C)NC(=O)[C@H](CC2CCCCC2)NC(=O)[C@H](CCN)NC(=O)[C@@H](CC(C)C)NC(=O)[C@H](C)N(C)C1=O` (stereo partly drawn) [Example 2283] ({CH2CO}-Y(Carboxymethyl)[Phe(4-COOH)]D[Phe(3-Me)]V[Bip]K(Ac)[NMeA][dL][Dab][Cha]V[Thr(3ξ)]C[AEEA][Aun]-OH; thioether N-14), 7.69. Under `Cc1cccc(C[C@@H]2NC(=O)[C@H](CC(=O)O)NC(=O)[C@H](Cc3ccc(C(=O)O)cc3)NC(=O)[C@H](Cc3ccc(OCC(=O)O)cc3)NC(=O)CSC[C@@H](C(=O)NCCOCCOCC(=O)NCCCCCCCCCCC(=O)O)NC(=O)[C@H](C(C)O)NC(=O)[C@H](C(C)C)NC(=O)[C@H](CC3CCCCC3)NC(=O)[C@H](CCN)NC(=O)[C@@H](CC(C)C)NC(=O)[C@H](C)N(C)C(=O)[C@H](CCC(N)=O)NC(=O)[C@H](Cc3ccc(-c4ccccc4)cc3)NC(=O)[C@H](C(C)C)NC2=O)c1` (stereo partly drawn) [Example 2284] ({CH2CO}-Y(Carboxymethyl)[Phe(4-COOH)]D[Phe(3-Me)]V[Bip]Q[NMeA][dL][Dab][Cha]V[Thr(3ξ)]C[AEEA][Aun]-OH; thioether N-14) stands 7.63.
